In assay [1] the test system is Human pleural mesothelioma cells NCI-H226. Put plainly: Proliferation inhibition assay of human pleural mesothelioma cells NCI-H226 (CCK8). The format is cell-based. The conditions noted are these: 72 h, 3 days incubation. The source says: Experimental Example 1 Cell Anti-Proliferation Test
Proliferation Inhibition Assay of Human Pleural Mesothelioma Cells NCI-H226 by YAP-TEAD Inhibitor Compounds
Experimental materials and equipment: Human pleural mesothelioma cells NCI-H226 were purchased from Nanjing Cobioer Biosciences CO., LTD. RPMI-1640 medium (Bio-Channel), DMSO (dimethyl sulfoxide), CCK8 (WST-8) cell analysis kit (Beyotime), 0.25% EDTA-Tripsin (trypsin solution), 1×PBS (phosphate buffer, PH7.2), 96-well plate (Corning), fetal bovine serum (FBS), 10,000 U/mL penicillin-G/streptomycin, high-speed cryo-centrifuge (EPPENDORF 5810R), enzyme-linked immunoassay (Tecan Spark).
• A) Tumor cells were cultured in RPMI-1640 (containing 10% FBS and 100 U/mL penicillin-G/streptomycin) at 37° C., 5% CO^2 and saturated humidity until 80-90% density. • B) Removed the culture medium from 10 cm Petri dishes; • C) Rinsed the cells once with 10 ml 1×PBS; • D) Added 4 ml 0.25% EDTA-Tripsin into 37° C., 5% CO^2 incubator for trypsin digestion for 5 minutes, transferred to 15 ml centrifuge tube, centrifuged at 200 g for 5 minutes, discarded the supernatant to get cell precipitate; • E) Resuspend with 4 ml DMEM medium, count and adjust to 10,000 cells/ml. • F) Added cell suspension to 96-well plate with 100 μL per well volume and incubate overnight at 37° C., 5% CO^2 incubator.
• A) Preparation of gradient dilution solution of tested compounds: the test compounds were configured into 1 mM reservoir solution. Then 1.5 μl of the reservoir solution was dissolved in 1.5 ml of DMSO-free culture solution, and then a 3-fold serial gradient dilution was performed with 0.1% DMSO culture solution for a total of 9 concentrations, and the concentrations of the compounds after dilution were as follows: • 333.33 nM, 111.11 nM, 37.03 nM, 12.35 nM, 4.15 nM, 1.37 nM, 0.46 nM, 0.15 nM • B) After thorough mixing, 100 μL of culture compound solution was taken separately to replace the culture solution in the cell culture plate, with 4 replicate wells for each concentration; • C) The cells were transferred to the incubator and incubated for 3 days.
• A) Removed the cell culture plate and added 10 μl of CCK-8 (WST-8) solution per well in the biosafety cabinet. • B) Placed the cell culture plate back into the incubator and continued incubation for 3 hours. • C) Determined the absorbance value by selecting 450 nm on a TECAN enzyme-linked immunoassay detector.
The cell viability (% Cell Viability) was calculated using the following formula.
[formula] • A (dosing): absorbance of wells with cells, CCK8 solution and drug solution • A (blank): absorbance of wells with medium and CCK8 solution but no cells • A (0 dosing): absorbance of wells with cells, CCK8 solution and no drug solution • Cell viability: Cell proliferation viability or cytotoxicity viability IC50 values were obtained by curve fitting with GraphPad Prism 8 software.

For a further assay, the system named is YAP-TEAD. Put plainly: Nano luciferase method to detect YAP-TEAD inhibitor activity (293T cells transfected with pGL3B-8×GTiiC-nLuc-CMV-fLuc). The format is cell-based. The conditions noted are these: Homo sapiens, HEK-293T; transfected 293T cells, 48 hours incubation; read-out: Nano Luciferas detection (IC50). The source says: Experimental Example 2 Nano Luciferase Method to Detect YAP-TEAD Inhibitor Activity
(1) Experimental materials and equipment: 293T cells were purchased from Nanjing Cobioer Biosciences CO., LTD. DMEM medium (high sugar, phenol red free, Bio-Channel), DMSO (dimethyl sulfoxide), Lipo6000™ transfection reagent (Beyotime), pGL3B-8×GTiiC-nLuc-CMV-fLuc plasmid, 0.25% EDTA Tripsin (trypsin solution), 1×PBS (phosphate buffer, PH7.2), 96-well white cell culture plate (PerkinElmer), Fetal Bovine Serum (FBS), 10,000 U/mL penicillin-G/streptomycin, High-speed cryo-centrifuge (EPPENDORF 5810R), 37° C. CO^2 incubator, Vi-Cell® cell counter, Envision microplate reader (PerkinElmer).
Resuscitated 293T cells were inoculated into 10 cm petri dishes and placed in a 5% CO^2 incubator at a constant temperature of 37° C. To ensure transfection efficiency, cells in the logarithmic phase (cell density of about 50%-70%) should be used.
One day before transfection, cells in logarithmic phase were digested with Trypsin-EDTA, the reaction was terminated by adding medium, and the cell suspension was made by blowing and mixing with a pipette.
The cell concentration was determined using Vi-cell and diluted to a suspension of 5*10^5 cells per milliliter. Once the cell suspension was prepared, it was gently mixed and 10 ml of liquid was added to a 10 cm petri dish. […] The cells were incubated in a 5% CO^2 incubator at 37° C. for 1 day.
Take two clean and sterile centrifuge tubes, added 750 μL of opti-MEM Medium without antibiotics and serum respectively, then added […] of plasmid (pGL3B-8×GTiiC-nLuc-CMV-fLuc) to one of the tubes and gently blown with a pipette for mixing; the other tube was added with Lipo6000 transfection reagent and gently blown with a pipette for mixing. After standing at room temperature for 5 minutes, the culture medium containing DNA was gently added to the culture medium containing Lipo6000 transfection reagent, mixed by gently inverting the centrifuge tube, and stood at room temperature for 5 minutes.
The above mixture was added evenly dropwise to a 10-cm petri dish and replaced with fresh complete medium after 6 h of incubation.
After 1 day of transfection, Trypsin EDTA was used to digest the cells, medium was added to terminate the reaction, and a cell suspension was made by blowing and mixing with a pipette.
Cell concentration was determined using Vi-cell, and diluted to a suspension of 20,000 cells per milliliter.
After the cell suspension was prepared, it was gently mixed and 100 μL was added to each well in a 96-well plate so that the density of cells to be measured was 2000 per well.
The inoculated cell culture plates were incubated in an incubator, and the compounds in concentration gradients were added after about 24 hours.
The 10 mM compound reservoir solution was diluted to 50 μM with culture medium, and 50 μM compound solution was added sequentially to the third column of the deep-well plate, and 216 μL of culture medium containing 0.5% DMSO to the fourth to eleventh columns.
Gradient dilution: 100 μL of solution was pipetted from the third column and added to the fourth column, after mixing; another 100 μL of solution was pipetted from the fourth column and added to the fifth column, and the operation was repeated until the eleventh column.
Using a multichannel pipette, 25 μL of compound solution was pipetted from the deep-well plate and added to the 96-well culture plate, and each compound was repeated four times on the 96-well plate. A concentration gradient with a maximum concentration of 10,000 nM, 1:3.16, was eventually formed on the 96-well plate.
The 96-well plate was incubated in a 5% CO^2 incubator at a constant temperature of 37° C. for 48 hours, then removed and equilibrated at room temperature for 10 minutes.
100 μL of detection reagent was added to each well and placed on a horizontal shaker at low speed for 10 minutes to fully lyse the cells. […]

Molecules are shown by their SMILES.

We go through 34 compounds from US20260152480A1, “POLYCYCLIC COMPOUND AND USE THEREOF” (TYK MEDICINES , INC., priority 2022, published 2026).

Turning to `C=CC(=O)N1CC=C(c2cccnc2Nc2ccc(C(F)(F)F)cc2)CC1` [Compound T2], the IC50 (in assay [1]; in the assay with YAP-TEAD) was ≤ 100 nM throughout.
As to `C=CC(=O)N1CCC(c2cccnc2Nc2ccc(C(F)(F)F)cc2)C1` (centres unmarked) [Compound T3], the concentration for half-maximal inhibition (IC50) (in assay [1]; in the assay with YAP-TEAD) was 100 to 1000 nM in each case.
As for `C=CC(=O)N1CC=C(c2cccnc2Nc2ccc(C(F)(F)F)cc2)C1` [Compound T4], the IC50 (in assay [1]; in the assay with YAP-TEAD) was ≤ 100 nM throughout.
In the case of `C=CC(=O)N1CC(c2cccnc2Nc2ccc(C(F)(F)F)cc2)C1` [Compound T5], the IC50 (in assay [1]; in the assay with YAP-TEAD) was 100 to 1000 nM throughout.
For the compound `C=CC(=O)N1CCC(c2cccnc2Nc2ccc(S(F)(F)(F)(F)F)cc2)CC1` [Compound T6], the IC50 (in assay [1]; with YAP-TEAD) was ≤ 100 nM each time.
With `C=CC(=O)N1CC=C(c2cccnc2Nc2ccc(S(F)(F)(F)(F)F)cc2)CC1` [Compound T7], the concentration for half-maximal inhibition (IC50) (in assay [1]; with YAP-TEAD) was ≤ 100 nM each time.
On to `C=CC(=O)N1CCC(c2cccnc2Nc2ccc(S(F)(F)(F)(F)F)cc2)C1` (centres unmarked) [Compound T8], for which the IC50 (in assay [1]; with YAP-TEAD) was ≤ 100 nM each time.
As to `C=CC(=O)N1CC=C(c2cccnc2Nc2ccc(S(F)(F)(F)(F)F)cc2)C1` [Compound T9], the IC50 (in assay [1]; with YAP-TEAD) was ≤ 100 nM in each case.
`C=CC(=O)N1CC(c2cccnc2Nc2ccc(S(F)(F)(F)(F)F)cc2)C1` [Compound T10]: the IC50 (in assay [1]; in the assay with YAP-TEAD) was ≤ 100 nM in each case.
Turning to `C=CC(=O)N1CCC(c2cccnc2Nc2ccc(C)cc2)CC1` [Compound T11], the IC50 (in assay [1]; with YAP-TEAD) was ≤ 100 nM throughout.
`C=CC(=O)N1CC=C(c2cccnc2Nc2ccc(C)cc2)CC1` [Compound T12]: the IC50 (in assay [1]; in the assay on YAP-TEAD) was ≤ 100 nM in each case.
As for `C=CC(=O)N1CCC(c2cccnc2Nc2ccc(C)cc2)C1` (centres unmarked) [Compound T13], the IC50 (in assay [1]; in the assay with YAP-TEAD) was ≤ 100 nM each time.
`C=CC(=O)N1CC=C(c2cccnc2Nc2ccc(C)cc2)C1` [Compound T14]: the half-maximal inhibitory concentration (IC50) (in assay [1]; in the assay with YAP-TEAD) was ≤ 100 nM throughout.
Consider `C=CC(=O)N1CC(c2cccnc2Nc2ccc(C)cc2)C1` [Compound T15], for which the half-inhibitory concentration (IC50) (in assay [1]; in the assay with YAP-TEAD) was ≤ 100 nM each time.
On to `C=CC(=O)N1CC=C(c2nccnc2Nc2ccc(C(F)(F)F)cc2)CC1` [Compound T17], for which the half-maximal inhibitory concentration (IC50) (in assay [1]; in the assay on YAP-TEAD) was ≤ 100 nM in each case.
Turning to `C=CC(=O)N1CCC(c2nccnc2Nc2ccc(C(F)(F)F)cc2)C1` (centres unmarked) [Compound T18], the IC50 (in assay [1]; in the assay on YAP-TEAD) was ≤ 100 nM throughout.
Turning to `C=CC(=O)N1CC=C(c2nccnc2Nc2ccc(C(F)(F)F)cc2)C1` [Compound T19], the IC50 (in assay [1]; in the assay with YAP-TEAD) was ≤ 100 nM throughout.
With `C=CC(=O)N1CC(c2nccnc2Nc2ccc(C(F)(F)F)cc2)C1` [Compound T20], the IC50 (in assay [1]; in the assay with YAP-TEAD) was ≤ 100 nM throughout.
Take `C=CC(=O)N1CCC(c2ccc(C)nc2Nc2ccc(C(F)(F)F)cc2)CC1` [Compound T21]: the IC50 (in assay [1]; with YAP-TEAD) was ≤ 100 nM in each case.
In the case of `C=CC(=O)N1CCC(c2c(C)ccnc2Nc2ccc(C(F)(F)F)cc2)CC1` [Compound T23], the IC50 (in assay [1]; in the assay with YAP-TEAD) was ≤ 100 nM throughout.
Consider `C=CC(=O)N1CCC(c2ccc(F)nc2Nc2ccc(C(F)(F)F)cc2)CC1` [Compound T24], for which the IC50 (in assay [1]; with YAP-TEAD) was ≤ 100 nM each time.
Consider `C=CC(=O)N1CCC(c2cc(F)cnc2Nc2ccc(C(F)(F)F)cc2)CC1` [Compound T25], for which the IC50 (in assay [1]; in the assay with YAP-TEAD) was ≤ 100 nM each time.
As for `C=CC(=O)N1CCC(c2c(F)ccnc2Nc2ccc(C(F)(F)F)cc2)CC1` [Compound T26], the IC50 (in assay [1]; in the assay on YAP-TEAD) was ≤ 100 nM in each case.
As to `C=CC(=O)N1CCC(c2cc(Cl)cnc2Nc2ccc(C(F)(F)F)cc2)CC1` [Compound T28], the IC50 (in assay [1]; in the assay on YAP-TEAD) was ≤ 100 nM in each case.
As to `C=CC(=O)N1CCC(c2c(Cl)ccnc2Nc2ccc(C(F)(F)F)cc2)CC1` [Compound T29], the IC50 (in assay [1]; in the assay with YAP-TEAD) was ≤ 100 nM in each case.
For the compound `C=CC(=O)N1CCC(c2ccc(OC)nc2Nc2ccc(C(F)(F)F)cc2)CC1` [Compound T33], the figures for the half-maximal inhibitory concentration (IC50) (in assay [1]; in the assay with YAP-TEAD) were 100 to 1000 nM and ≤ 100 nM, respectively.
On the same counts, the results for `C=CC(=O)N1CCC(c2cc(OC)cnc2Nc2ccc(C(F)(F)F)cc2)CC1` [Compound T34] are 100 to 1000 nM and 100 to 1000 nM.
On the same counts, the results for `C=CC(=O)N1CCC(c2c(OC)ccnc2Nc2ccc(C(F)(F)F)cc2)CC1` [Compound T35] are 100 to 1000 nM and 100 to 1000 nM.
On the same counts, the results for `C=CC(=O)N1CCN(c2cccnc2Nc2ccc(C(F)(F)F)cc2)CC1` [Compound T36] are 100 to 1000 nM and 100 to 1000 nM.
As for `C=CC(=O)N1CCC(c2cc(F)cnc2Oc2ccc(C(F)(F)F)cc2)CC1` [Compound T38], the 50% inhibitory concentration (IC50) (in assay [1]; in the assay on YAP-TEAD) was 100 to 1000 nM each time.
Regarding `C=CC(=O)N1CCC(c2cc(C(F)(F)F)cnc2Oc2ccc(C(F)(F)F)cc2)CC1` [Compound T39], the IC50 (in assay [1]; in the assay with YAP-TEAD) was 100 to 1000 nM in each case.
With `C=CC(=O)N1CCC(c2ccnnc2Nc2ccc(C(F)(F)F)cc2)CC1` [Compound T42], the IC50 (in assay [1]; in the assay on YAP-TEAD) was 100 to 1000 nM in each case.
For `C=CC(=O)N1CCC(c2cncnc2Nc2ccc(C(F)(F)F)cc2)CC1` [Compound T43], the IC50 (in assay [1]; with YAP-TEAD) was 100 to 1000 nM in each case.
Consider `C=CC(=O)N1CCC(c2cc(C)cnc2Oc2ccc(C(F)(F)F)cc2)CC1` [Compound T44], for which the IC50 (in assay [1]; in the assay with YAP-TEAD) was 100 to 1000 nM in each case.
